Measurements: US7205382B2, “Peptides, the production and use thereof for binding immunoglobulins” (Fresenius Medical Care Affina GmbH, priority 2000, dated 2007)
Bridge positions count the residues as written; N and C are the ends. Square brackets hold non-standard residues; d marks the D form. Ends that are not written are not given here. cellulose = not defined here; βAla = NCCC(=O)O

Tests used:
Type in all cases: binding
Parameters in all cases: key: No binding of immunoglobulin for the defined peptide variant, detection negative: 0; Binding of immunoglobulin for the defined peptide variant, detection positive: +
[1] = tested on: immunoglobulins in human plasma; test: Cellulose-immobilized 13-mer peptide variants incubated with human plasma, anti-human IgG-AP detection; conditions: human plasma as sample, diluted 1:10,000 in blocking buffer, 3 h room temperature
How it was run: (§1)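 Binding is scored by NBT/BCIP precipitate from an AP-conjugated anti-human IgG probe on membrane-synthesized peptides. Targets are applied for 3 h at room temperature in 4% BSA/5% saccharose block: IgG-Fc at 1 μg/ml, serum at 1:10,000.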

serum albumin = test: Cellulose-immobilized 13-mer peptide variants incubated with serum albumin (negative control), anti-human IgG-AP detection; conditions: blocking buffer without addition, 3 h room temperature
How it was run: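 Peptides on cellulose via a (βA)(βA) spacer were blocked in T-TBS (pH 8.0) with 5% saccharose and 4% BSA, then exposed for 3 h at room temperature to IgG-Fc (1 μg/ml), serum diluted 1:10,000, or blocking buffer alone. Bound IgG was detected with AP-anti-human IgG (1.2 μg/ml) and NBT/BCIP colour development.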

human IgG-Fc = test: Cellulose-immobilized 13-mer peptide variants incubated with human IgG-Fc, anti-human IgG-AP detection; conditions: IgG-Fc 1 μg/ml in blocking buffer, 3 h room temperature
How it was run: as §1

Substance | Result for incubation with human plasma (immunoglobulin binding detection) [1] | Result for incubation with serum albumin (immunoglobulin binding detection) (serum albumin) | Result for incubation with human IgG-Fc (immunoglobulin binding detection) (human IgG-Fc)
08S: cellulose-bound 13-mer variant DCAWHLGSLVWCT-(βA)(βA) (DCAWHLGSLVWCT-{βAla-βAla-cellulose}; disulfide 2-12 (inferred); reading uncertain; also: printed as DCAWHLGSLVWCT-(βA)(βA)) | 0 | 0 | +
03G: cellulose-bound 13-mer variant DCGWHLGELVWCT-(βA)(βA) (DCGWHLGELVWCT-{βAla-βAla-cellulose}; disulfide 2-12 (inferred); reading uncertain; also: printed as DCGWHLGELVWCT-(βA)(βA)) | 0 | 0 | 0
10T: cellulose-bound 13-mer variant DCAWHLGELTWCT-(βA)(βA) (DCAWHLGELTWCT-{βAla-βAla-cellulose}; disulfide 2-12 (inferred); reading uncertain; also: printed as DCAWHLGELTWCT-(βA)(βA)) | 0 | 0 | 0
02F: cellulose-bound 13-mer variant DFAWHLGELVWCT-(βA)(βA) (DFAWHLGELVWCT[βAla][βAla]; not fully specified; printed as DFAWHLGELVWCT-(βA)(βA); also: cellulose-bound) | 0 | 0 | 0
10A: cellulose-bound 13-mer variant DCAWHLGELAWCT-(βA)(βA) (DCAWHLGELAWCT-{βAla-βAla-cellulose}; disulfide 2-12 (inferred); reading uncertain; also: printed as DCAWHLGELAWCT-(βA)(βA)) | 0 | 0 | 0
01K: cellulose-bound 13-mer variant KCAWHLGELVWCT-(βA)(βA) (KCAWHLGELVWCT-{βAla-βAla-cellulose}; disulfide 2-12 (inferred); reading uncertain; also: printed as KCAWHLGELVWCT-(βA)(βA)) | 0 | 0 | +
12H: cellulose-bound 13-mer variant DCAWHLGELVWHT-(βA)(βA) (DCAWHLGELVWHT-{βAla-βAla-cellulose}; not fully specified; printed as DCAWHLGELVWHT-(βA)(βA); reading uncertain) | 0 | 0 | 0
02P: cellulose-bound 13-mer variant DPAWHLGELVWCT-(βA)(βA) (DPAWHLGELVWCT[βAla][βAla]; not fully specified; printed as DPAWHLGELVWCT-(βA)(βA); also: cellulose-bound) | 0 | 0 | 0
05V: cellulose-bound 13-mer variant DCAWVLGELVWCT-(βA)(βA) (disulfide 2-12 (inferred); not fully specified (N-terminus, C-terminus); printed as DCAWVLGELVWCT-(βA)(βA); also: cellulose-bound) | 0 | 0 | 0
03N: cellulose-bound 13-mer variant DCNWHLGELVWCT-(βA)(βA) (DCNWHLGELVWCT-{βAla-βAla-cellulose}; disulfide 2-12 (inferred); reading uncertain; also: printed as DCNWHLGELVWCT-(βA)(βA)) | 0 | 0 | 0
10K: cellulose-bound 13-mer variant DCAWHLGELKWCT-(βA)(βA) (DCAWHLGELKWCT-{βAla-βAla-cellulose}; disulfide 2-12 (inferred); reading uncertain; also: printed as DCAWHLGELKWCT-(βA)(βA)) | 0 | 0 | 0
04C: cellulose-bound 13-mer variant DCACHLGELVWCT-(βA)(βA) (DCACHLGELVWCT-{βAla-βAla-cellulose}; disulfide (positions not given here); not fully specified (bridges); printed as DCACHLGELVWCT-(βA)(βA); reading uncertain) | 0 | 0 | 0
02L: cellulose-bound 13-mer variant DLAWHLGELVWCT-(βA)(βA) (DLAWHLGELVWCT[βAla][βAla]; not fully specified; printed as DLAWHLGELVWCT-(βA)(βA); also: cellulose-bound) | 0 | 0 | 0
01I: cellulose-bound 13-mer variant ICAWHLGELVWCT-(βA)(βA) (ICAWHLGELVWCT-{βAla-βAla-cellulose}; disulfide 2-12 (inferred); reading uncertain; also: printed as ICAWHLGELVWCT-(βA)(βA)) | 0 | 0 | 0
03L: cellulose-bound 13-mer variant DCLWHLGELVWCT-(βA)(βA) (DCLWHLGELVWCT-{βAla-βAla-cellulose}; disulfide 2-12 (inferred); reading uncertain; also: printed as DCLWHLGELVWCT-(βA)(βA)) | 0 | 0 | 0
04P: cellulose-bound 13-mer variant DCAPHLGELVWCT-(βA)(βA) (disulfide 2-12 (inferred); not fully specified (N-terminus, C-terminus); printed as DCAPHLGELVWCT-(βA)(βA); also: cellulose-bound) | 0 | 0 | 0
10Q: cellulose-bound 13-mer variant DCAWHLGELQWCT-(βA)(βA) (DCAWHLGELQWCT-{βAla-βAla-cellulose}; disulfide 2-12 (inferred); reading uncertain; also: printed as DCAWHLGELQWCT-(βA)(βA)) | 0 | 0 | 0
08Y: cellulose-bound 13-mer variant DCAWHLGYLVWCT-(βA)(βA) (DCAWHLGYLVWCT-{βAla-βAla-cellulose}; disulfide 2-12 (inferred); reading uncertain; also: printed as DCAWHLGYLVWCT-(βA)(βA)) | 0 | 0 | 0
04G: cellulose-bound 13-mer variant DCAGHLGELVWCT-(βA)(βA) (DCAGHLGELVWCT[βAla][βAla]; disulfide 2-12 (inferred); also: cellulose-bound) | 0 | 0 | 0
02G: cellulose-bound 13-mer variant DGAWHLGELVWCT-(βA)(βA) (DGAWHLGELVWCT[βAla][βAla]; not fully specified; printed as DGAWHLGELVWCT-(βA)(βA); also: cellulose-bound) | 0 | 0 | 0
07C: cellulose-bound 13-mer variant DCAWHLCELVWCT-(βA)(βA) (DCAWHLCELVWCT-{βAla-βAla-cellulose}; not fully specified (N-terminus); printed as DCAWHLCELVWCT-(βA)(βA); cysteine pairing not given here; reading uncertain) | 0 | 0 | 0
